In US12247246B2, “Identification of inhibitors of TcpC and TIR NADase activity” (Washington University, priority 2017, dated 2025):
pIC50: −log10 of the molar value.

Assays:
[1] = system: prokaryotic TIR domains (TirS-TIR, TcpC-TIR, TcpA-TIR); test: Substrate specificity in NADase assay, purified prokaryotic TIR domains; format: biochemical; conditions: purified TIR proteins, HPLC and LC-MS, 30 minutes
Protocol: Supernatant (90 μL) containing the extracted metabolites was mixed with 0.5M Potassium Phosphate buffer (10 μL), and metabolites were analyzed by HPLC (Nexera X2) with Kinetex (100×3 mm, 2.6 μm; Phenomenex) column. Internal standards for NAD^+, Nicotinamide (Nam), ADP Ribose (ADPR), and cyclic ADPR were used to generate standard curves for quantification of the respective compounds. The levels for each compound in each experimental sample were normalized to the 0 min time point that was analyzed concurrently.
Neutralization was performed with 3M K2CO3.
Samples were prepared by mixing the reactions with 50% methanol in distilled water. The samples were placed on ice, centrifuged, soluble metabolites in the supernatant were extracted with chloroform, and the aqueous phase was lyophilized and stored at −20° C. until LC-MS analysis. For LC-MS, the metabolite samples were reconstituted with 5 mM ammonium formate, centrifuged 12,000×g for 10 min, and the cleared supernatant was applied to the LC-MS for metabolite identification and quantification. Liquid chromatography was performed by HPLC system (1290; Agilent) with Atlantis T3 (2.1×150 mm, 3 μm; Waters) column. Samples (10 µl) were injected at a flow rate of 0.15 ml/min with 5 mM ammonium formate for mobile phase A and 100% methanol for mobile phase B and metabolites were eluted with gradients of 2-6 min, 0-20% B; 6-8 min, 20-50% B; 8-10 min 50% B; 10-15 min, 50-0% B. The metabolites were detected with Triple Quad mass spectrometer (6460; Agilent) under positive ESI multiple reaction monitoring (MRM). Metabolites were quantified by MassHunter quantitative analysis tool (Agilent) with standard curves. Standard curves for each compound were generated by analyzing NAD^+, cADPR, ADPR, and Nam reconstituted in 5 mM ammonium formate.
In some instances, NADases are capable of cleaving a number of related molecules, such as the NAD+ precursor Nicotinamide Mononucleotide (NMN) in the case of CD38 (Sauve et al., 1998). Further, we wanted to determine whether prokaryotic TIRs could cleave additional substrates, providing additional paths to modifying cell metabolism. To examine the substrate specificity of the prokaryotic TIR domains, we tested their activity using a wide variety of metabolites and analogs.

SARM1-TIR = molecular target: T1, SARM1-TIR (Homo sapiens, UniProt Q6SZW1, DEL570-570/DEL657-657); test: Substrate specificity in NADase assay, purified SARM1-TIR; format: biochemical; conditions: purified TIR protein, HPLC and LC-MS, 30 minutes
T1 construct: made in house
T1 sequence (Q6SZW1 with tags, fused parts or gaps DEL570-570/DEL657-657): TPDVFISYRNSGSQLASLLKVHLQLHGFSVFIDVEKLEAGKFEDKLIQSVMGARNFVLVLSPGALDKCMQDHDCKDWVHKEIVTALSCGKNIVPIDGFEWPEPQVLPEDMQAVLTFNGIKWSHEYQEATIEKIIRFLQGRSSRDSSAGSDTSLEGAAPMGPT

[2] = system: SPN (Streptococcus Pyogenes NAD^+ glycohydrolase); conditions: reported value (Ghosh et al., 2010); cited from earlier work
TirS = TirS (Staphylococcus aureus, UniProt P0DTS9); test: TirS NADase inhibition assay (in-vitro translated protein, NAD/ADPR by HPLC); format: biochemical; conditions: FIG. 11B
TirS, sequence (P0DTS9 141-275 limits assumed): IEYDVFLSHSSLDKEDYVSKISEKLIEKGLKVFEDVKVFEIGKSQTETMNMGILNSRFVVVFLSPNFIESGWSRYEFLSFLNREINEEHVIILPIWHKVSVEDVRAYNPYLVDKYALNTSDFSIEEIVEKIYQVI
Protocol: (§1) The reaction was incubated at 37° C. for 60 min, and then stopped by addition of 180 μl of 0.55 M perchloric acid (HClO4) and placed on ice. After 10 min on ice, the reaction plates were centrifuged for 10 min at 4,000 rpm (Sorvall ST 16R centrifuge). The supernatant (120 μl) was transferred to a new plate and 10 μl of 3M K2CO3 was added to neutralize the solution. Precipitated salts were removed by centrifugation 10 min at 4,000 rpm (Sorvall ST 16R centrifuge). […] This ratio was compared to the ratio generated in the absence of compound inhibitors.

SARM1 (Sam-Tir) = molecular target: T2, SARM1 (Sam-Tir) (Homo sapiens, UniProt Q6SZW1); test: SARM1 Sam-Tir lysate NADase inhibition assay; format: biochemical; conditions: data not shown
T2 construct: SARM1 Sam-Tir lysate and MSSA Tir were also used; made in house; host or cells: lysate
T2 sequence (Q6SZW1 410-724 limits assumed): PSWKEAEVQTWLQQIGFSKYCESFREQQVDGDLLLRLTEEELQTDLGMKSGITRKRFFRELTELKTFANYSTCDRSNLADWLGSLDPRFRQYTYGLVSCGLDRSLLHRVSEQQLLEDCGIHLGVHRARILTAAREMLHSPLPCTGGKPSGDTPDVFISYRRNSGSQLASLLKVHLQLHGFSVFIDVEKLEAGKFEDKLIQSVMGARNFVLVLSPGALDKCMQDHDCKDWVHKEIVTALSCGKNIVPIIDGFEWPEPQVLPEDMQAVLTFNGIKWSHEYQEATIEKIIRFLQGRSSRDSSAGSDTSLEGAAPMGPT
Protocol: NAD (10 μM final concentration) was then added for a final reaction volume of 20 μl. The reaction was incubated at 37° C. for 60 min, and then stopped by addition of 180 μl of 0.55 M perchloric acid (HClO4) and placed on ice. After 10 min on ice, the reaction plates were centrifuged for 10 min at 4,000 rpm (Sorvall ST 16R centrifuge). The supernatant (120 μl) was transferred to a new plate and 10 μl of 3M K2CO3 was added to neutralize the solution. Precipitated salts were removed by centrifugation 10 min at 4,000 rpm (Sorvall ST 16R centrifuge). The supernatant was transferred and analyzed by HPLC (Shimadzu Nexera X2) to quantify the amounts of NAD and ADPR, a product of the cleavage reaction, in each sample. From these values, the NAD/ADPR ratio was calculated for each compound as a measure of NAD cleavage activity. This ratio was compared to the ratio generated in the absence of compound inhibitors.
(§2) Positive hits were individually purchased from Sigma and tested its dose dependent inhibition in conditions described above. SARM1 Sam-Tir lysate and MSSA Tir were also used to test if these compounds could block these Tir NADase activities as well.

TcpC TIR = TcpC TIR (Escherichia coli O6:H1, UniProt A0A0H2V8B5); test: biochemical; format: biochemical, uropathogenic Escherichia coli; conditions: for inhibitor of TcpC TIR NADase activity (screen hit, NAD/ADPR ratio >2): Pharmakon library screen, 25 μM compound, 10 μM NAD, 37° C. 60 min, hits retested for dose dependent inhibition
TcpC TIR, sequence (A0A0H2V8B5 169-303 limits assumed): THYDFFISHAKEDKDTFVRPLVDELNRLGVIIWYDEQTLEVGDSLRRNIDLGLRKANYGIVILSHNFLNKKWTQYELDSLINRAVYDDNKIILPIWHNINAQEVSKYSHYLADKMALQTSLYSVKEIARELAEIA
Protocol: (§3) NRK1-HEK293T cells were seeded onto 150 cm2 plates at 20×10^6 cells per plate. […] Forty-eight hours after transfection, cells were harvested, pelleted by centrifugation at 1,000 rpm (Sorvall ST 16R centrifuge, Thermo Fisher), and washed once with cold PBS (0.01 M phosphate buffered saline NaCl 0.138 M; KCl 0.0027 M; pH 7.4). The cells were resuspended in PBS with protease inhibitors (Complete protease inhibitor cocktail, Roche product #11873580001) and cell lysates were prepared by sonication (Branson Sonifer 450, output=3, 20 episodes of stroke). […] Protein concentration was determined by the Bicinchoninic (BCA) method and used to normalize lysate concentrations.
as §1, §2

[3] = molecular target: T3, uropathogenic Escherichia coli TcpC TIR domain (TcpC-TIR) (Escherichia coli, UniProt A0A0H2V8B5); format: biochemical; conditions: primary screen 25 μM, 10 μM NAD, 37° C, 60 min (hit: NAD/ADPR ratio >2), then dose response; FIG. 10
T3 construct: cell lysate
T3 sequence (A0A0H2V8B5 170-307): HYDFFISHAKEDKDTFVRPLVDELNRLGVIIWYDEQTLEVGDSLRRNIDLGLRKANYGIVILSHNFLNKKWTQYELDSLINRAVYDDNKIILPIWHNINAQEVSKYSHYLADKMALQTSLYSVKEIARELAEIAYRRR
Protocol: as §3, §1
Positive hits were individually purchased from Sigma and tested its dose dependent inhibition in conditions described above. […]

Row | Compound | cleavage of substrate by prokaryotic TIR domains [1] | cleavage of substrate by SARM1-TIR (SARM1-TIR) | also measured
1 | NC(=O)c1ccc[n+]([C@@H]2O[C@H](COP(=O)([O-])OP(=O)(O)OC[C@H]3O[C@@H](n4cnc5c(=O)[nH]c(N)nc54)[C@H](O)[C@@H]3O)[C@@H](O)[C@H]2O)c1 [NGD, Nicotinamide Guanine Dinucleotide] | did not cleave | cleaved | 
2 | NC(=S)c1ccc[n+]([C@@H]2O[C@H](COP(=O)([O-])OP(=O)(O)OC[C@H]3O[C@@H](n4cnc5c(N)ncnc54)[C@H](O)[C@@H]3O)[C@@H](O)[C@H]2O)c1 [sNAD, thionicotinamide adenine dinucleotide] | substantially cleaved | substantially cleaved | 
3 | NC(=O)c1ccc[n+]([C@@H]2O[C@H](COP(=O)([O-])O)[C@@H](O)[C@H]2O)c1 [NMN, Nicotinamide Mononucleotide] | little effect |  | 
4 | Nc1ncnc2c1ncn2[C@@H]1O[C@H](COP(=O)(O)OP(=O)(O)OC[C@H]2O[C@@H]([n+]3cccc(C(=O)O)c3)[C@H](O)[C@@H]2O)[C@@H](O)[C@H]1O [NaAD, Nicotinic Acid Adenine Dinucleotide] | none cleaved | none cleaved | 
5 | CC(=O)c1ccc[n+]([C@@H]2O[C@H](COP(=O)([O-])OP(=O)(O)OC[C@H]3O[C@@H](n4cnc5c(N)ncnc54)[C@H](O)[C@@H]3O)[C@@H](O)[C@H]2O)c1 [3-apAD, 3-acetylpyridine adenine dinucleotide] | substantially cleaved | substantially cleaved | 
6 | NC(=O)c1ccc[n+]([C@@H]2O[C@H](COP(=O)([O-])OP(=O)(O)OC[C@H]3O[C@@H](n4cnc5c(N)ncnc54)[C@H](O)[C@@H]3O)[C@@H](O)[C@H]2O)c1 [NAD+] |  |  | Km [2]: 188 µM
7 | Nc1ncnc2c1ncn2[C@@H]1O[C@H](COP(=O)(O)OP(=O)(O)OP(=O)(O)O)[C@@H](O)[C@H]1O [ATP, Adenosine triphosphate] | unable to detect substantial cleavage | unable to detect substantial cleavage | 
8 | NC(=O)c1ccc[n+](C2OC(COP(=O)(O)OP(=O)(O)OCC3OC(n4cnc5c(=O)[nH]cnc54)C(O)C3O)C(O)C2O)c1 (stereo not shown) [NHD, Nicotinamide Hypoxanthine Dinucleotide] | did not cleave | cleaved | 
9 | Guanine triphosphate [GTP] | unable to detect substantial cleavage | unable to detect substantial cleavage | 
10 | Nc1c2ccccc2nc2ccccc12 [9-aminoacridine] |  |  | inhibition of TirS NADase activity, compared among acridine compounds (TirS): most potent inhibition; inhibition of SARM1 (Sam-Tir) NADase activity (SARM1 (Sam-Tir)): Neither of these drugs inhibited; inhibition of TcpC TIR NADase activity (TcpC TIR; data not shown): Neither of these drugs inhibited
11 | Cc1cc(N)c2ccccc2[n+]1CCCCCCCCCC[n+]1c(C)cc(N)c2ccccc21 [Dequalinium] |  |  | inhibition of TcpC TIR NADase activity [3]: very potent inhibitor; pIC50 (TcpC TIR): ~6.52; inhibitor of TcpC TIR NADase activity (screen hit, NAD/ADPR ratio >2) (TcpC TIR): potent inhibitor; inhibitor of TcpC TIR NADase activity (screen hit, NAD/ADPR ratio >2) (TcpC TIR; listed as dequalinium): inhibitors
12 | NC(N)=NC(=O)c1nc(Cl)c(N)nc1N [amiloride, 3,5-diamino-6-chloro-N-(diaminomethylidene)pyrazine-2-carboxamide] |  |  | inhibitor of TcpC TIR NADase activity (screen hit, NAD/ADPR ratio >2) (TcpC TIR): inhibitors
13 | Nicotinamide Adenine Dinucleotide Phosphate [NADP^+] | cleave |  | 
